Measured values published in patent US20240190855A1 (Relay Therapeutics, Inc., priority 2021, published 2024).

These molecules were tested against T1, CDK2/Cyclin E complex (Homo sapiens, UniProt P24941) (assay: CDK2/Cyclin E fluorescence-based microfluidic mobility shift assay (CDK2 Biochemical Caliper Assay)). Details: read-out: Biochemical CDK2/CyclinE Caliper IC50.
T1 construct: purchased Eurofins 14-475
Procedure, shortened: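 Microfluidic mobility-shift readout after EDTA termination measured phosphorylation of fluorescent FL Peptide 18 (1.5 uM final) in a 20 hr room-temperature reaction. Compounds were tested at 11 concentrations (3-fold).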

| SMILES | IC50 [µM] |
| --- | --- |
| CO[C@H](c1cc(C(=O)Nc2cc([C@H]3C[C@@H](OC(=O)NC4(C)CC4)CO3)[nH]n2)n(C)n1)C(F)(F)F (single isomer, unassigned) [Example 889] | 0.1 to 0.25 |
| CO[C@@H](C)c1cc2c(Nc3cc([C@H]4C[C@@H](OC(=O)NC5(C)CC5)CO4)[nH]n3)nccn2n1 (single isomer, unassigned) [Example 891] | ≤ 0.1 |
| Cn1nc(COC(F)(F)F)cc1C(=O)Nc1ncc([C@H]2C[C@@H](OC(=O)NC3(C)CC3)CO2)s1 (single isomer, unassigned) [Example 903] | ≤ 0.1 |
| COCc1cc(C(=O)Nc2ncc([C@H]3C[C@@H](OC(=O)NC4(C)CC4)CO3)s2)n(C)n1 (single isomer, unassigned) [Example 905] | ≤ 0.1 |
| Cc1cc(CC(=O)Nc2ncc(C3CCCC3)o2)on1 [Example 38] | 1 to 100 |
| Cc1cc(CC(=O)Nc2nc(C3CCCC3)c[nH]2)on1 [Example 43] | 1 to 100 |
| Cc1cc(CC(=O)Nc2cc([C@H]3C[C@@H]4C[C@@H]4C3)[nH]n2)on1 [Example 50] | 1 to 100 |
| Cc1cc(CC(=O)Nc2cc(N3CC[C@H](COC(=O)NC4(C)CC4)C3)[nH]n2)on1 [Example 51] | 1 to 100 |
| Cc1cc(CC(=O)Nc2cc(C3CCNCC3)[nH]n2)on1 [Example 54] | 1 to 100 |
| Cc1cc(CC(=O)Nc2cc(-c3ccccc3)[nH]n2)on1 [Example 62] | 1 to 100 |
| Cc1cc(CC(=O)Nc2cc([C@H]3C[C@@H](COC(=O)NC(C)C)C3)[nH]n2)on1 [Example 125] | ≤ 0.1 |
| Cc1cc(CC(=O)Nc2cc([C@H]3CC[C@@H](COC(=O)NC(C)C)CC3)[nH]n2)on1 [Example 135] | 1 to 100 |
| COCc1cc(C(=O)Nc2cc(-c3csc4cncnc34)[nH]n2)n(C)n1 [Example 242] | 1 to 100 |
| Cc1cc(CC(=O)Nc2cc(C34CCC(CC3)C4)[nH]n2)on1 [Example 244] | 1 to 100 |
| c1cnc(Nc2cc(C34CCC(CC3)C4)[nH]n2)nc1 [Example 314] | 1 to 100 |
| Cc1cc(CC(=O)Nc2cc(-c3csc4cnc(NC(C)C)nc34)[nH]n2)on1 [Example 336] | 0.25 to 1 |
| Cc1cc(CC(=O)Nc2cc([C@H]3C[C@@H](CC(=O)NC(C)C)C3)[nH]n2)on1 [Example 347] | 1 to 100 |
| Cc1cc(CC(=O)Nc2cc([C@H]3C[C@H](CC(=O)NC(C)C)C3)[nH]n2)on1 [Example 348] | 1 to 100 |
| COCc1cc(C(=O)Nc2cc([C@H]3C[C@@H](CC(=O)NC(C)C)C3)[nH]n2)n(C)n1 [Example 360] | 1 to 100 |
| COCc1cc(C(=O)Nc2cc([C@H]3C[C@H](CC(=O)NC(C)C)C3)[nH]n2)n(C)n1 [Example 361] | 1 to 100 |
| Cc1cc(CC(=O)Nc2cc([C@H]3C[C@@H](Oc4nnccc4C(C)C)CO3)[nH]n2)on1 [Example 406] | ≤ 0.1 |
| CC(C)c1ccnnc1O[C@H]1CC[C@@H](c2cc(Nc3nccc4ncsc34)n[nH]2)CC1 [Example 412] | ≤ 0.1 |

| SMILES | IC50 [µM] |
| --- | --- |
| Cc1cc(CC(=O)Nc2cc(C3CCCN3)[nH]n2)on1 (centres unmarked) [Example 416] | 1 to 100 |
| CC(C)NC(=O)O[C@H]1CC[C@@H](c2cc(Nc3ncnc4ncsc34)n[nH]2)C1 [Example 426] | ≤ 0.1 |
| COCc1cc(C(=O)Nc2cc([C@H]3C[C@@H](COc4nnccc4C(C)C)C3)[nH]n2)n(C)n1 [Example 429] | ≤ 0.1 |
| COCc1cc(C(=O)Nc2cc([C@H]3C[C@H](COc4nnccc4C(C)C)C3)[nH]n2)n(C)n1 [Example 430] | 1 to 100 |
| Cc1cc(CC(=O)Nc2cc([C@H]3C[C@@H](COc4nnccc4C(C)C)C3)[nH]n2)on1 [Example 431] | ≤ 0.1 |
| CC(C)NC(=O)O[C@H]1CO[C@@H](c2cc(Nc3nccc4ncsc34)n[nH]2)C1 [Example 433] | ≤ 0.1 |
| CC(C)NC(=O)O[C@@H]1CO[C@H](c2cc(Nc3nccc4ncsc34)n[nH]2)C1 [Example 434] | 0.1 to 0.25 |
| CC(C)c1ccnnc1O[C@H]1C[C@@H](c2cc(Nc3nccc4ncsc34)n[nH]2)C1 [Example 435] | ≤ 0.1 |
| COCc1cc(C(=O)Nc2cc([C@H]3C[C@@H](COc4nscc4C4CC4)C3)[nH]n2)n(C)n1 [Example 454] | ≤ 0.1 |
| COCc1cc(C(=O)Nc2cc([C@H]3C[C@H](COc4nscc4C4CC4)C3)[nH]n2)n(C)n1 [Example 455] | 1 to 100 |
| COCc1cc(C(=O)Nc2cc([C@H]3C[C@@H](Oc4nnccc4C(C)C)CO3)[nH]n2)n(C)n1 [Example 458] | ≤ 0.1 |
| COCc1cc(C(=O)Nc2cc([C@@H]3C[C@H](Oc4nnccc4C(C)C)CO3)[nH]n2)n(C)n1 [Example 459] | ≤ 0.1 |
| COCc1cc(C(=O)Nc2cc([C@H]3C[C@H](COC(=O)NC(C)C)C3)[nH]n2)n(C)n1 [Example 461] | 1 to 100 |
| CC(C)c1ccnnc1O[C@H]1CO[C@@H](c2cc(Nc3nccn4nccc34)n[nH]2)C1 [Example 464] | ≤ 0.1 |
| CC(C)c1ccnnc1OC[C@H]1C[C@@H](c2cc(Nc3nccn4nccc34)n[nH]2)C1 [Example 488] | ≤ 0.1 |
| COCc1cc2c(Nc3cc([C@H]4C[C@@H](Oc5nnccc5C(C)C)CO4)[nH]n3)nccn2n1 [Example 496] | ≤ 0.1 |
| COCc1cc2c(Nc3cc([C@@H]4C[C@H](Oc5nnccc5C(C)C)CO4)[nH]n3)nccn2n1 [Example 497] | ≤ 0.1 |
| Cc1ncccc1OC[C@H]1C[C@H](c2cc(Nc3nccn4nccc34)n[nH]2)C1 [Example 514] | 1 to 100 |
| COCc1cc(C(=O)Nc2cc([C@H]3C[C@@]4(CN(CC(C)C)C(=O)N4)C3)[nH]n2)n(C)n1 [Example 516] | 0.25 to 1 |
| COCc1cc2c(Nc3cc([C@H]4C[C@@H](COc5nnccc5C(C)C)C4)[nH]n3)nccn2n1 [Example 519] | ≤ 0.1 |
| COCc1cc2c(Nc3cc([C@H]4C[C@H](COc5nnccc5C(C)C)C4)[nH]n3)nccn2n1 [Example 520] | 1 to 100 |

Next, values leading:

| IC50 [µM] | SMILES |
| --- | --- |
| ≤ 0.1 | CO[C@@H](c1cc(C(=O)Nc2cc([C@H]3C[C@@H](OC(=O)NC4(C)CC4)CO3)[nH]n2)n(C)n1)C(F)(F)F (single isomer, unassigned) [Example 890] |
| ≤ 0.1 | CO[C@H](C)c1cc2c(Nc3cc([C@H]4C[C@@H](OC(=O)NC5(C)CC5)CO4)[nH]n3)nccn2n1 (single isomer, unassigned) [Example 892] |
| ≤ 0.1 | Cn1nc(COC(F)(F)F)cc1C(=O)Nc1ncc([C@@H]2C[C@H](OC(=O)NC3(C)CC3)CO2)s1 (single isomer, unassigned) [Example 899] |
| ≤ 0.1 | COCc1cc(C(=O)Nc2ncc([C@@H]3C[C@H](OC(=O)NC4(C)CC4)CO3)s2)n(C)n1 (single isomer, unassigned) [Example 900] |
| 1 to 100 | Cc1cc(CC(=O)Nc2cc(C3(C)CCCC3)[nH]n2)on1 [Example 47] |
| 1 to 100 | Cc1cc(CC(=O)Nc2cc(C3CCCCC3)[nH]n2)on1 [Example 48] |
| 1 to 100 | Cc1cc(CC(=O)Nc2cc(N3CC[C@H]3COC(=O)NC3(C)CC3)[nH]n2)on1 [Example 52] |
| 1 to 100 | Cc1cc(CC(=O)Nc2cc(C3CC3)[nH]n2)on1 [Example 59] |
| 1 to 100 | Cc1cc(CC(=O)Nc2cn(C3CCCC3)cn2)on1 [Example 60] |
| 1 to 100 | Cc1cc(CC(=O)Nc2ncn(C3CCCC3)n2)on1 [Example 61] |
| 1 to 100 | Cc1cc(CC(=O)Nc2cc(C3CCCC3)[nH]n2)on1 [Example 66] |
| ≤ 0.1 | Cc1cc(CC(=O)Nc2cc([C@H]3CC[C@@H](OC(=O)N(C(C)C)C(C)C)C3)n[nH]2)on1 [Example 147] |
| 1 to 100 | Cc1cc(CC(=O)Nc2cc(-c3csc4cncnc34)[nH]n2)on1 [Example 240] |
| 1 to 100 | COCc1cc(C(=O)Nc2cc(-c3csc4cnc(NC(C)C)nc34)[nH]n2)n(C)n1 [Example 337] |
| ≤ 0.1 | Cc1cc(CC(=O)Nc2cc([C@H]3C[C@@H](COc4nscc4C4CC4)C3)[nH]n2)on1 [Example 368] |
| 1 to 100 | Cc1cc(CC(=O)Nc2cc([C@H]3C[C@H](COc4nscc4C4CC4)C3)[nH]n2)on1 [Example 369] |

| IC50 [µM] | SMILES |
| --- | --- |
| 0.25 to 1 | Cc1ccc(O[C@@H]2CC[C@H](c3cc(NC(=O)Cc4cc(C)no4)n[nH]3)C2)nn1 [Example 397] |
| ≤ 0.1 | Cc1cc(CC(=O)Nc2cc([C@@H]3C[C@H](Oc4nnccc4C(C)C)CO3)[nH]n2)on1 [Example 407] |
| ≤ 0.1 | CC(C)NC(=O)O[C@@H]1CC[C@H](c2cc(Nc3ncnc4ncsc34)n[nH]2)C1 [Example 425] |
| 0.1 to 0.25 | Cc1cc(CC(=O)Nc2cc([C@H]3C[C@H](COc4nnccc4C(C)C)C3)[nH]n2)on1 [Example 432] |
| ≤ 0.1 | CC(C)c1ccnnc1O[C@@H]1CC[C@H](c2cc(Nc3nccc4ncsc34)n[nH]2)C1 [Example 436] |
| ≤ 0.1 | CC(C)c1ccnnc1O[C@H]1CC[C@@H](c2cc(Nc3nccc4ncsc34)n[nH]2)C1 [Example 437] |
| ≤ 0.1 | CC(C)c1ccnnc1OC[C@H]1C[C@@H](c2cc(Nc3nccc4ncsc34)n[nH]2)C1 [Example 438] |
| 1 to 100 | CC(C)c1ccnnc1OC[C@H]1C[C@H](c2cc(Nc3nccc4ncsc34)n[nH]2)C1 [Example 439] |
| ≤ 0.1 | CC(C)NC(=O)OC[C@H]1C[C@@H](c2cc(Nc3nccc4ncsc34)n[nH]2)C1 [Example 456] |
| 0.25 to 1 | CC(C)NC(=O)OC[C@H]1C[C@H](c2cc(Nc3nccc4ncsc34)n[nH]2)C1 [Example 457] |
| ≤ 0.1 | COCc1cc(C(=O)Nc2cc([C@H]3C[C@@H](COC(=O)NC(C)C)C3)[nH]n2)n(C)n1 [Example 460] |
| ≤ 0.1 | CC(C)c1ccnnc1O[C@@H]1CO[C@H](c2cc(Nc3nccn4nccc34)n[nH]2)C1 [Example 465] |
| 0.25 to 1 | CC(C)c1ccnnc1OC[C@H]1C[C@H](c2cc(Nc3nccn4nccc34)n[nH]2)C1 [Example 489] |
| 0.1 to 0.25 | Cc1ncccc1OC[C@H]1C[C@@H](c2cc(Nc3nccn4nccc34)n[nH]2)C1 [Example 513] |
| 1 to 100 | COCc1cc(C(=O)Nc2cc([C@H]3C[C@]4(CN(CC(C)C)C(=O)N4)C3)[nH]n2)n(C)n1 [Example 515] |
